Where a name gives a salt, the structure may show the parent alone.
What was measured:
[1] = ref Higley et al., 2011, Maramai et al., 2016, Nathan et al., 2012, Stossel et al., 2017, Thanos et al., 2008, Thomsen et al., You et al.; cited from earlier work
rats [2] = experiment: Hot plate thermal nociception test; format: in vivo, rat
DAT-Cre mice = experiment: Optical intracranial self-stimulation; format: in vivo, mouse; conditions: for effect on oICSS: 5 min prior to testing, vs vehicle
rats [3] = conditions: ref Ashby et al., 2003; cited from earlier work
rats [4] = conditions: ref You et al., 2017, cited from earlier work
[5] = ref Xi and Gardner, 2007; cited from earlier work
rats [6] = experiment: Open-field locomotor activity; format: in vivo, rat; conditions: 10 or 20 mg/kg i.p., vs vehicle
[7] = Pharmacokinetic study in rats, plasma and brain; format: in vivo; conditions: rat, plasma, po, 10 mg/kg
wild-type C57BL/6J mice = experiment: Sucrose self-administration; format: in vivo, mouse
[8] = Phase I metabolic stability in rat liver microsomes; format: in vitro ADME; conditions: rat liver microsomes fortified with NADPH, 60 min incubation, 10 μM compound
Long-Evans rats [9] = experiment: Oxycodone self-administration under FR1 reinforcement; format: in vivo, rat
Long-Evans rats [10] = experiment: Oxycodone self-administration under progressive-ratio; conditions: 20 mg/kg i.p., normalized to baseline, vs vehicle

Cc1ncoc1-c1nnc(SCCCN2C[C@@H]3C[C@]3(c3ccc(C(F)(F)F)cc3F)C2)n1C [GSK598809]
effect on food-taking and food-seeking behavior [1]: significantly inhibit food-taking and food-seeking behavior

COc1ccc2c3c1O[C@H]1C(=O)CC[C@@]4(O)[C@@H](C2)N(C)CC[C@]314 [oxycodone, Oxycodone HCl, reference compound]
time of peak antinociceptive effect (rats [2]; hot plate, after administration): 30 min | effect on oICSS (DAT-Cre mice; 1 mg/kg i.p.): significant increase in oICSS | effect on oICSS (DAT-Cre mice; 3 mg/kg i.p.): significant reduction in oICSS

O=C(NC/C=C/CN1CCN(c2cccc(Cl)c2Cl)CC1)c1ccc(-c2ccccn2)cc1 [PG01037]
effect on food-taking and food-seeking behavior [1]: significantly inhibit food-taking and food-seeking behavior

N#Cc1ccc2c(c1)CCN(CCC1CCC(NC(=O)c3ccnc4ccccc34)CC1)C2 (stereo not shown) [SB-277011A]
effect on opioid-induced conditioned place preference (rats [3]): significantly inhibits opioid-induced conditioned place preferences (CPP) | effect on food-taking and food-seeking behavior [1]: significantly inhibit food-taking and food-seeking behavior

CCc1cc(Cl)c(OC)c(N2CCN(CC(O)CCNC(=O)c3cc4ccccc4[nH]3)CC2)c1 (racemic) [(±)VK4-116]
effect on oxycodone self-administration (rats [4]; FR1 and PR schedules): dose-dependently inhibited oxycodone self-administration | effect on oxycodone-triggered reinstatement of drug-seeking (rats [4]): suppressed oxycodone-triggered reinstatement of drug-seeking behavior

O=C(NCCCCN1CCN(c2cccc(Cl)c2Cl)CC1)c1ccc2c(c1)Cc1ccccc1-2 [NGB-2904]
effect on food-taking and food-seeking behavior [1]: significantly inhibit food-taking and food-seeking behavior | effect on cocaine-induced extracellular nucleus accumbens DA [5]: enhanced cocaine-induced increases in extracellular nucleus accumbens DA

CCc1cccc(N2CCN(C[C@H](O)CCNC(=O)c3cc4ccccc4[nH]3)CC2)c1Cl.Cl [R-VK4-40, (R)-N-(4-(4-(2-Chloro-3-ethylphenyl)piperazin-1-yl)-3-hydroxybutyl)-1H-indole-2-carboxamide HCl]
effect on open-field locomotion (rats [6]): no effect on open-field locomotion | AUC(0-t) [7]: 1.99 ± 0.28 µM·h | Cmax [7]: 310 ± 110 nM | effect on number of sucrose reinforcers earned (wild-type C57BL/6J mice; 3 mg/kg i.p., vs vehicle): no statistically significant differences | effect on number of sucrose reinforcers earned (wild-type C57BL/6J mice; 10 mg/kg i.p., vs vehicle and 3 mg/kg): significantly reduced the number of sucrose reinforcers earned | effect of pretreatment on %MPE (rats [2]; 20 mg/kg i.p., after 1 mg/kg oxycodone): significant elevation of %MPE | effect of pretreatment on oxycodone analgesia dose-response curve (rats [2]; 10 or 20 mg/kg i.p. 30 min before oxycodone 0.5-4 mg/kg i.p.): shifted the oxycodone dose-response curve significantly upward | effect on oICSS, compound alone (DAT-Cre mice; R-VK4-40 alone i.p. (10, 20 mg/kg as printed elsewhere in the source)): significant reduction in oICSS | effect of pretreatment on oxycodone-enhanced oICSS (DAT-Cre mice; pretreatment before 1 mg/kg oxycodone): significantly reduced low-dose (1 mg/kg) oxycodone enhancements in oICSS | % intact remaining [8]: 86±2% | effect on oxycodone self-administration (infusions earned) (Long-Evans rats [9]; FR1, 10 or 20 mg/kg i.p. 30 min before session, oxycodone 0.0031-0.05 mg/kg/infusion): dose-dependent reduction in oxycodone self-administration | effect on daily oxycodone intake (Long-Evans rats [9]; FR1, 10 or 20 mg/kg i.p. pretreatment): reduced oxycodone intake at the 0.00625 and 0.05 mg/kg doses | effect on inactive lever responding (Long-Evans rats [9]; FR1 oxycodone self-administration): no effect on inactive lever responding | effect on PR break-point for oxycodone self-administration (Long-Evans rats [10]): significant decrease in break-point

Source: publication PMC6745270 (Neuropharmacology, 2019)
